# Data published in patent publication US20250074901A1, “NOVEL HETEROARYL COMPOUNDS” (ICAGEN, LLC, priority 2021, published 2025).
# Target: T1, Kv7.2 (Homo sapiens, UniProt O43526)
# T1 construct: expressed in transfected cells
# Test: Activation of Kv7.2 (in vitro assay, concentration response curve)
# Type: cell-based
# Details: for Emax: Kv7.2 activation max %; for EC50: activation of Kv7.2
# Procedure: The term “EC50” in this application is defined as: the agonistic effect of a compound can be determined by testing the compound in an in vitro assay as described herein, whereby the effect of the compound is measured across a range of compound concentrations. The resulting data is plotted as a concentration response curve, which typically follows a sigmoidal function, whereby the concentration of the compound is plotted on the x axis and the response (agonistic effect) is plotted on the y axis. The term “EC50” is the “half maximal effective concentration” and denotes the concentration of a particular compound required to obtain 50% of the maximum response (Emax) which is observed for that compound in the given in vitro assay.
Emax [%],EC50 [nM],SMILES
54,500,"O=C(NCc1ccnc(OCC(F)CF)c1)N[C@H]1C[C@H](C(F)(F)F)C1 (some centres unmarked) [Example 214, 1-[[2-(2,3-difluoropropoxy)pyridin-4-yl]methyl]-3-[(1r,3r)-3-(trifluoromethyl)cyclobutyl]urea]"
73,390,"O=C(NCc1ccnc(-n2cccn2)c1)N[C@@H]1C[C@H]2CC[C@@H]1C2 [Example 16, 1-[(1R,2R,4S)-2-bicyclo[2.2.1]heptanyl]-3-[(2-pyrazol-1-ylpyridin-4-yl)methyl]urea]"
85,7220,"O=C(NCc1ccnc(OC(F)F)c1)Nc1nccc(Cl)n1 [Example 96, 1-(4-chloropyrimidin-2-yl)-3-[[2-(difluoromethoxy)pyridin-4-yl]methyl]urea]"
60,540,"O=C(NCc1ccnc(OC(F)F)c1)NC1(C23CC(C2)C3)CC1 [Example 246, 1-[1-(1-bicyclo[1.1.1]pentanyl)cyclopropyl]-3-[[2-(difluoromethoxy)pyridin-4-yl]methyl]urea]"
70,320,"O=C(NCc1ccnc(OC(F)F)c1)NC(C1CC1)C1CC1 [Example 253, 1-(dicyclo-propylmethyl)-3-[[2-(difluoromethoxy)pyridin-4-yl]methyl]urea]"
82,50,"CC1(C)CC(NC(=O)NCc2ccnc(OC(F)F)c2)C1 [Example 188, 1-[[2-(difluoromethoxy)pyridin-4-yl]methyl]-3-(3,3-dimethylcyclobutyl)urea]"
64,140,"O=C(NCc1ccnc(OC(F)F)c1)NC(C1CCC1)C(F)(F)F (centres unmarked) [Example 152, 1-(1-cyclobutyl-2,2,2-trifluoroethyl)-3-[[2-(difluoromethoxy)pyridin-4-yl]methyl]urea]"
40,6830,O=C(NCc1cnnc(OCC(F)(F)F)c1)N[C@H]1C[C@H](C(F)(F)F)C1 [Example 215]
78,1720,"O=C(NCc1ccnc(OCF)c1)Nc1cccc(Cl)c1 [Example 164, 1-(3-chlorophenyl)-3-[[2-(fluoromethoxy)pyridin-4-yl]methyl]urea]"
64,460,"O=C(NCc1ccnc(OC(F)F)c1)NCC(O)C12CC(C1)C2 (centres unmarked) [Example 291, 1-[2-(1-bicyclo[1.1.1]pentanyl)-2-hydroxyethyl]-3-[[2-(difluoromethoxy)pyridin-4-yl]methyl]urea]"
62,150,"O=C(NCc1ccnc(OCC2CCC2)c1)N[C@H]1C[C@H](C(F)(F)F)C1 [Example 54, 1-[[2-(cyclobutylmethoxy)pyridin-4-yl]methyl]-3-[(1r,3r)-3-(trifluoromethyl)cyclobutyl]urea]"
51,300,"CC(C)(C)CCNC(=O)NCc1ccnc(OC(F)F)c1 [Example 109, 1-[[2-(difluoromethoxy)pyridin-4-yl]methyl]-3-(3,3-dimethylbutyl)urea]"
54,4930,"CC(F)(F)c1cc(CNC(=O)NC23CC(F)(C2)C3)ccn1 [Example 200, 1-[[2-(1,1-difluoroethyl)pyridin-4-yl]methyl]-3-(3-fluoro-1-bicyclo[1.1.1]pentanyl)urea]"
40,3660,"O=C(NCc1ccnc(OC(F)F)c1)N[C@H]1C[C@](O)(C(F)(F)F)C1 [Example 100, 1-[[2-(difluoromethoxy)pyridin-4-yl]methyl]-3-[(1s,3s)-3-hydroxy-3-(trifluoromethyl)cyclobutyl]urea]"
67,1140,"O=C(NCc1ccnc(C(F)F)c1)N[C@H]1C[C@@H]2CC[C@H]1C2 (racemic) [Example 35, 1-[[2-(difluoromethyl)pyridin-4-yl]methyl]-3-[rac-(1R,2R,4S)-2-bicyclo[2.2.1]heptanyl]urea]"
51,200,"O=C(NCc1ccnc(OC(F)F)c1)N[C@H]1[C@@H]2CCC(F)(F)[C@@H]21 [Example 174, 1-[(1S,5R,6S)-2,2-difluoro-6-bicyclo[3.1.0]hexanyl]-3-[[2-(difluoromethoxy)pyridin-4-yl]methyl]urea]"
40,2450,"O=C(NCc1ccnc(OC(F)F)c1)NC1CCOC(C(F)(F)F)C1 (centres unmarked) [Example 226, 1-[[2-(difluoromethoxy)pyridin-4-yl]methyl]-3-[2-(trifluoromethyl)oxan-4-yl]urea]"
54,500,"O=C(NCc1ccnc(OC(F)F)c1)NC1C2CCC1CC(F)(F)C2 (racemic) [Example 197, 1-[[2-(difluoromethoxy)pyridin-4-yl]methyl]-3-[rac-(1R,5S)-3,3-difluoro-8-bicyclo[3.2.1]octanyl]urea]"
48,360,"O=C(NCc1ccnc(CC(F)(F)F)c1)Nc1ccc(F)c(F)c1 [Example 274, 1-(3,4-difluorophenyl)-3-[[2-(2,2,2-trifluoroethyl)pyridin-4-yl]methyl]urea]"

Emax [%],EC50 [nM],SMILES
63,90,"CC12CC(NC(=O)NCc3ccnc(OC(F)F)c3)(C1)C2 [Example 182, 1-[[2-(difluoromethoxy)pyridin-4-yl]methyl]-3-(3-methyl-1-bicyclo[1.1.1]pentanyl)urea]"
46,350,"O=C(NCc1ccnc(OCC(F)(F)F)c1)N[C@H]1C[C@@H](F)C1 [Example 269, 1-((1s,3s)-3-fluorocyclobutyl)-3-[[2-(2,2,2-trifluoroethoxy)pyridin-4-yl]methyl]urea]"
65,380,"O=C(NCc1ccnc(-n2cnc(C(F)(F)F)c2)c1)N[C@H]1C[C@@H]2CC[C@H]1C2 (racemic) [Example 26, 1-[rac-(1R,2R,4S)-2-bicyclo[2.2.1]heptanyl]-3-[[2-[4-(trifluoromethyl)imidazol-1-yl]pyridin-4-yl]methyl]urea]"
64,210,"O=C(NCc1ccnc(OC(F)F)c1)NCC1CCCC1 [Example 46, 1-(cyclopentylmethyl)-3-[[2-(difluoromethoxy)pyridin-4-yl]methyl]urea]"
42,100,"O=C(NCc1ccnc(OC(F)F)c1)N[C@H]1CCCC(F)(F)C1 [Example 140, 1-[(1S)-3,3-difluorocyclohexyl]-3-[[2-(difluoromethoxy)pyridin-4-yl]methyl]urea]"
51,240,"O=C(NCc1ccnc(OC(F)F)c1)NC1COc2ccccc2C1 (centres unmarked) [Example 192, 1-[[2-(difluoromethoxy)pyridin-4-yl]methyl]-3-(3,4-dihydro-2H-chromen-3-yl)urea]"
61,320,"O=C(NCc1ccnc(OC(F)F)c1)N[C@H]1CC[C@@H](C(F)(F)F)CC1 [Example 211, 1-[[2-(difluoromethoxy)pyridin-4-yl]methyl]-3-[(1s,4s)-4-(trifluoromethyl)cyclohexyl]urea]"
64,540,"O=C(NCc1ccnc(C(F)(F)F)c1)N[C@H]1C[C@@H]2CC[C@H]1C2 (racemic) [Example 36, 1-[rac-(1R,2R,4S)-2-bicyclo[2.2.1]heptanyl]-3-[[2-(trifluoromethyl)pyridin-4-yl]methyl]urea]"
57,260,"C[C@H](F)COc1cc(CNC(=O)N[C@H]2C[C@H](C(F)(F)F)C2)ccn1 [Example 202, 1-[[2-[(2S)-2-fluoropropoxy]pyridin-4-yl]methyl]-3-[(1r,3r)-3-(trifluoromethyl)cyclobutyl]urea]"
52,1870,"O=C(NCc1ccnc(OC(F)F)c1)N[C@H]1C[C@H](F)C1 [Example 67, 1-[[2-(difluoromethoxy)pyridin-4-yl]methyl]-3-((1r,3r)-3-fluorocyclobutyl)urea]"
78,40,O=C(NCc1ccnc(OC(F)F)c1)N[C@H]1C[C@H]2CCC[C@H]2C1 [Example 105]
74,4400,"O=C(NCc1ccnc(-n2cccn2)c1)NC1CCCC1 [Example 2, 1-cyclopentyl-3-[(2-pyrazol-1-ylpyridin-4-yl)methyl]urea]"
75,120,"O=C(NCc1ccnc(OC(F)F)c1)N[C@@H]1CCC[C@H](C(F)(F)F)C1 [Example 250, 1-[[2-(difluoromethoxy)pyridin-4-yl]methyl]-3-[(1R,3S)-3-(trifluoromethyl)cyclohexyl]urea]"
65,400,"O=C(NCc1ccnc(OC(F)F)c1)N[C@H]1C[C@@H](C(F)(F)F)C1 [Example 198, 1-[[2-(difluoromethoxy)pyridin-4-yl]methyl]-3-[(1s,3s)-3-(trifluoromethyl)cyclobutyl]urea]"
51,300,"O=C(NCc1ccnc(OCC2CC2)c1)N[C@H]1C[C@H](C(F)(F)F)C1 [Example 55, 1-[[2-(cyclopropylmethoxy)pyridin-4-yl]methyl]-3-[(1r,3r)-3-(trifluoromethyl)cyclobutyl]urea]"
76,450,"CC1CC(NC(=O)NCc2ccnc(OC(F)F)c2)C1 (centres unmarked) [Example 65, 1-[[2-(difluoromethoxy)pyridin-4-yl]methyl]-3-(3-methylcyclobutyl)urea]"
68,490,"O=C(NC(CO)c1ccnc(OCC(F)(F)F)c1)NC12CC(F)(C1)C2 (centres unmarked) [Example 283, 1-(3-fluoro-1-bicyclo[1.1.1]pentanyl)-3-[2-hydroxy-1-[2-(2,2,2-trifluoroethoxy)pyridin-4-yl]ethyl]urea]"
94,1900,"O=C(NC(CCO)c1ccnc(OC(F)F)c1)N[C@H]1C[C@H](C(F)(F)F)C1 (some centres unmarked) [Example 117, 1-[1-[2-(difluoromethoxy)pyridin-4-yl]-3-hydroxypropyl]-3-[(1r,3r)-3-(trifluoromethyl)cyclobutyl]urea]"
